Usually inhibition stands for the drop in the measured response relative to a control, in per cent.

One data set concerns the target Vasopressin 1 (Homo sapiens, UniProt P37288). The data set can be described thus: Table 12 panel: Vasopressin 1. Particulars: 1.0E−6, average N=2, read-out: percentage inhibition of specific binding. The source says: (§1) The percentage inhibition (average; N=2) for these receptors is shown below in Table 12.
(§2) Values in Table 12 are expressed as percentage inhibition of specific binding, and these values represent the average of replicate tubes at each of the concentrations tested.

A further data set relates to Galanin, Non-Selective. Briefly: Table 12 panel: Galanin. Format: binding. Particulars: 1.0E−6, average N=2.
Description: as §1, §2

In data set [1] the target is Oxidase, MAO-A, Peripheral (Homo sapiens, UniProt P21397). Briefly: Table 12 panel: MAO-A. Format: biochemical. The settings on record: 1.0E−6, average N=2.
Description: as §1, §2

The test system of data set [2] is Potassium Channel, ATP-Sensitive. The data set can be described thus: Table 12 panel: Potassium Channel, ATP-Sensitive. Format: binding. The settings on record: 1.0E−6, average N=2.
Description: as §1, §2

Another data set has as its system Glutamate, Kainate Site. Briefly: Table 12 panel: Glutamate, Kainate. Format: binding. The settings on record: 1.0E−6, average N=2.
Description: as §1, §2

The target in another data set is Histamine, H3 (Homo sapiens, UniProt Q9Y5N1). The data set can be described thus: biochemical. The settings on record: read-out: percentage inhibition of specific binding.
The subject of data set [3] is Adrenergic, Beta, Non-selective. Briefly: Table 12 panel: Adrenergic, Beta. Format: binding. Particulars: 1.0E−6, average N=2.
Description: as §1, §2

For data set [4], the target named is Neurokinin, NK2 (NKA) (hr) (Homo sapiens, UniProt P21452). Briefly: Table 12 panel: NK2. The settings on record: 1.0E−6, average N=2, read-out: percentage inhibition of specific binding.
Description: as §1, §2

The next data set has as its target T1, CYP 2C9 (Homo sapiens, UniProt P11712).
T1 construct: in a commercially available human microsomal preparation; purchased; host or cells: human microsomal preparation
Briefly: Cytochrome P450 inhibition: CYP 2C9. Type of data set: in vitro ADME. Particulars: human microsomal preparation. As for the experimental part:
Cytochrome P450 inhibition was studied with HY2901 in vitro. […] In addition, the in vitro rate of metabolism in rat, dog, monkey, and human hepatocyte cultures was determined for HY2901.

Another data set concerns the target hERG (Homo sapiens, UniProt Q12809). Particulars: human, 10 µM, pH 7.4.

Sequence of Neurokinin, NK2 (NKA) (hr) (P21452 whole entry): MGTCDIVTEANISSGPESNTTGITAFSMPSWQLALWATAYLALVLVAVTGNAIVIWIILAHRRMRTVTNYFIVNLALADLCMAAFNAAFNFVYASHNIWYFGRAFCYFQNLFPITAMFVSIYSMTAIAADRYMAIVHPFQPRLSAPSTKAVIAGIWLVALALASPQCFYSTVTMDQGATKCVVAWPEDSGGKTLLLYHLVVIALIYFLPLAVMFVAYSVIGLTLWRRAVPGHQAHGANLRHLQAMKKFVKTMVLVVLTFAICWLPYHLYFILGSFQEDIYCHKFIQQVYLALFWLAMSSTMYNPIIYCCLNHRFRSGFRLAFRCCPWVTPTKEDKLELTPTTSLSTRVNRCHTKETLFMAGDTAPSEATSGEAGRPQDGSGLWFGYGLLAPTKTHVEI
T1 sequence (P11712 whole entry): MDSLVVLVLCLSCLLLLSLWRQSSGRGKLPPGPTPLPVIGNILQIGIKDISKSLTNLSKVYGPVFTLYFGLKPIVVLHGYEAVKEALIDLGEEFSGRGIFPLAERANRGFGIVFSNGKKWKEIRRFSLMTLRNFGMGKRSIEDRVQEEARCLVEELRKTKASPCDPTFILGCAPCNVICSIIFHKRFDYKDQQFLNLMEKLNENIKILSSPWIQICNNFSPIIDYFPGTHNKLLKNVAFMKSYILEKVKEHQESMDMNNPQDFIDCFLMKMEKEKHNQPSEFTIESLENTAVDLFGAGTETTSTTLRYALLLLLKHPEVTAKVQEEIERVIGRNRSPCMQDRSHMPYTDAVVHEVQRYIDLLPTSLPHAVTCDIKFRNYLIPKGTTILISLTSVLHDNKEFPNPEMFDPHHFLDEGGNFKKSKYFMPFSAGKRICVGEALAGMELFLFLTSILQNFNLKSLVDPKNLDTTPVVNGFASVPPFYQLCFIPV
Sequence of Oxidase, MAO-A, Peripheral (P21397 whole entry): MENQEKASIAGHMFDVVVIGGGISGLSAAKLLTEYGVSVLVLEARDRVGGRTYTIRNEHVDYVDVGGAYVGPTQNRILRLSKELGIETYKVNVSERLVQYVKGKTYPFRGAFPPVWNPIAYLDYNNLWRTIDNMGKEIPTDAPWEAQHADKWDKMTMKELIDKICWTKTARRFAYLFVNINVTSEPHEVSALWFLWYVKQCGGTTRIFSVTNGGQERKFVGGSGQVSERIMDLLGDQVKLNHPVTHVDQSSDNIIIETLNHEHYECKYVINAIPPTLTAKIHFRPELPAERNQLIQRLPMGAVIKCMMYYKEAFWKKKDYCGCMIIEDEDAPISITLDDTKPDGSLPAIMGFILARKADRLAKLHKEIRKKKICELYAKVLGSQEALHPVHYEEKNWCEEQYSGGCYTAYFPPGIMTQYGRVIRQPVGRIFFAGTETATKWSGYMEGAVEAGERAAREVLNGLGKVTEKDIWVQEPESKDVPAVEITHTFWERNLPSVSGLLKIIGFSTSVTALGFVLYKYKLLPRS
Sequence of hERG (Q12809 whole entry): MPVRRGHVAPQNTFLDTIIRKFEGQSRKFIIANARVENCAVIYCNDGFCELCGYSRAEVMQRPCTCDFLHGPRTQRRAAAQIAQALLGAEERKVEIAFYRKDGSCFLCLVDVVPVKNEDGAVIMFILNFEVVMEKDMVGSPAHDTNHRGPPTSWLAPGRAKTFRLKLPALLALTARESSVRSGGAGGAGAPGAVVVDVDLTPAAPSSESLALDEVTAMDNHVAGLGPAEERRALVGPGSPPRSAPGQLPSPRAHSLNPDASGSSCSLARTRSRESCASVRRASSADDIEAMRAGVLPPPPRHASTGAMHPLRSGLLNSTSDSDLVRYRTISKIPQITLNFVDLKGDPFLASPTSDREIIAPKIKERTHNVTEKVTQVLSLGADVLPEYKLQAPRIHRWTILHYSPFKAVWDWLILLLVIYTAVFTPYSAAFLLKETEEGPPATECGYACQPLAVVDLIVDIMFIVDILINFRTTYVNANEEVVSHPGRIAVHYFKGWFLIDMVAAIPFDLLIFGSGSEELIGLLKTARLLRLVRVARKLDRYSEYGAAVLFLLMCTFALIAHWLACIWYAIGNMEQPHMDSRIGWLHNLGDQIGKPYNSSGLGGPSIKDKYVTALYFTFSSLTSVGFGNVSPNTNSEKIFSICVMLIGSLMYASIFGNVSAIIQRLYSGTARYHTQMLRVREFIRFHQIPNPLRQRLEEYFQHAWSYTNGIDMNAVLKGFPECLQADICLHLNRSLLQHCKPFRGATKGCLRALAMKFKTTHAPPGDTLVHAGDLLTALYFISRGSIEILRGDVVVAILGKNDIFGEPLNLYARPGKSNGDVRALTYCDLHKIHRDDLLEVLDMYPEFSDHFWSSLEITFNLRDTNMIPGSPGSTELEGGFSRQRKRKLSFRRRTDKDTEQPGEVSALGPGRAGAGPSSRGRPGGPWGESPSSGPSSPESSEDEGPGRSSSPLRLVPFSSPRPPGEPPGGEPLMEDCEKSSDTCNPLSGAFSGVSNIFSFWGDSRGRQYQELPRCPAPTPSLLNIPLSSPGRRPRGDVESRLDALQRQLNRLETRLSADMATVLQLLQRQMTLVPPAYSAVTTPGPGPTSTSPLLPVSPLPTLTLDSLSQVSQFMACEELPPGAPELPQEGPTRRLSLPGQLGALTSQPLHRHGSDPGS
Sequence of Histamine, H3 (Q9Y5N1 whole entry): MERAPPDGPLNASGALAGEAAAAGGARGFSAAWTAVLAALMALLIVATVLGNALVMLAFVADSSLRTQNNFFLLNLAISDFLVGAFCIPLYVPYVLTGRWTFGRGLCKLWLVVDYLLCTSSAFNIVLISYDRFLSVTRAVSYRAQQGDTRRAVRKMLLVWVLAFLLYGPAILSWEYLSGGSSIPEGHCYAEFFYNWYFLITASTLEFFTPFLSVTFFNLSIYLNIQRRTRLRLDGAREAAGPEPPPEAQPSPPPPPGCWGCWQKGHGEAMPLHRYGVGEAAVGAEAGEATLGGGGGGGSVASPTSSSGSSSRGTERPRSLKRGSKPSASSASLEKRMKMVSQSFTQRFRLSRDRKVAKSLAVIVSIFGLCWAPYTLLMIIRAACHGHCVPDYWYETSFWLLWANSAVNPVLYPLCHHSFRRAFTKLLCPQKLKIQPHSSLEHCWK
Sequence of Vasopressin 1 (P37288 whole entry): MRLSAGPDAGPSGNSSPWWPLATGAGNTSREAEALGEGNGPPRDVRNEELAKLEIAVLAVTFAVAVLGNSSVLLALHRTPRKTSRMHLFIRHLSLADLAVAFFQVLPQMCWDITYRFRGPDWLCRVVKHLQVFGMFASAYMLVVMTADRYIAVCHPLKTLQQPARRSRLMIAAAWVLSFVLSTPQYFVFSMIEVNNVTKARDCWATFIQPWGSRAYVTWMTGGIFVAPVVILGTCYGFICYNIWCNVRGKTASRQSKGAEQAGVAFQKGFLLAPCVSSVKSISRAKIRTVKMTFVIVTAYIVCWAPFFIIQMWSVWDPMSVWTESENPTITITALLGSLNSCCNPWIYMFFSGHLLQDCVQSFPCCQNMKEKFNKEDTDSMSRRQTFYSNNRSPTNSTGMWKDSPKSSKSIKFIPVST

`CC(CC(=O)O)N1CCC(=C2c3ccc(F)cc3COc3ccccc32)CC1` (stereo not shown) [Compound 37]: the inhibition at 1 µM was 11.6% at Vasopressin 1; 5.11% on Histamine, H3; -4.17% in data set [4]. The “percentage inhibition of specific binding” value in the data set on Galanin, Non-Selective is −5.07%; in data set [2] it was 26.16%; in the data set on Glutamate, Kainate Site, 1.51%; in data set [3], 6.97%. Further, the percentage inhibition in data set [1] was −17.23% ^.
As to `CC(C)(CN1CCC(=C2c3ccc(F)cc3COc3ccccc32)CC1)C(=O)O` [Compound 49a], the “inhibition of CYP 2C9 activity” value against CYP 2C9 was “did not inhibit”. Moreover, the “hERG at micromolar (% blocking of the hERG channel)” value at hERG is 10.9 @ 10%.
